Experiments:
Assay type in all cases: in vivo, human
[1] = Retrospective screen of chronic-care charts of obese hypertensive prisoners: random serum glucose, fasting lipid panel, blood pressure, weight; conditions: for dose-dependent effects: chart study, discussion
Text: One-hundred ten (110) patient charts in chronic care for hypertension at an 1800-capacity prison were initially screened. The data included age, weight, height, ethnicity, medications, lipid panel results for glucose, triglycerides and HDL-C, and blood pressure. All known or previously diagnosed diabetics were excluded from the study.
For cases involving ACE inhibitor plus simvastatin, further analysis included evaluation of total cholesterol and calculated low density lipoprotein (LDL-C).
In order to evaluate the effects of simvastatin without ACE inhibitor, 5 additional charts were screened (increasing n to 13).
The data were analyzed with respect to random serum lab values including random serum glucose and fasting lipid panel (which included total cholesterol, HDL-C, TG, and the calculated LDL-C). […] In addition, a few charts were evaluated for temporal changes spanning chronic care visits including weight, mean arterial blood pressure, medication adjustments, and random serum values of HDL-C, triglycerides, and glucose. A two-tailed student t test was used to test for significance between 2 sample means. Linear regression analysis with F statistic was used to obtain goodness of fit. Only coefficients of determination (r2) of 0.1 or greater were reported. […] The level of significance used was a probability (P)<0.05.

[2] = Example 3: ACE inhibitor given to severely obese person with low HDL-C; conditions: 75 mg/day, after 1 year; baseline 25 mg/dL
Procedure: A person presents with normal blood pressure (125/85), normal fasting glucose (105 mg/dL), and normal triglyceride (145 mg/dL). They are severely obese with a BMI of 40. […] The patient is considered to be at significant risk of developing metabolic syndrome and/or cardiovascular disease later in life. They are advised of the risk and of the beneficial effects of losing weight. After 1 year the patient advises that despite strenuous effects to lose weight, including dieting and exercise, their bodyweight remains the same. They are prescribed Captopril, 75 mg/day.

[3] = Example 2: ACE inhibitor given to non-obese person with low HDL-C; conditions: 10 mg/day, after 1 year; baseline 30 mg/dL; without concomitant weight loss or lifestyle changes
Procedure: A non-obese person presents for physical examination. […] The patient's parent is on anti-hypertension and anti-lipemic medications. The patient's older sibling is obese, hypertensive, and is being treated for coronary artery disease including recent placement of a cardiac stent for primary coronary artery blockage. […] Given the patients family history and low HDL-C […] risk of developing one or more metabolic conditions is considered high. They are prescribed Lisinopril, 10 mg/day.

[4] = FIG. 5A, controls without ACE inhibitor (with and without Hctz)
[5] = FIG. 7, upper limit of normal daily dosages
[6] = one individual over 44 months (FIG. 3), captopril from 24 months, no anti-lipemic agent

NS(=O)(=O)c1cc2c(cc1Cl)NCNS2(=O)=O [Hctz, Hydrochlorothiazide]
mean glucose ([1]; FIG. 5A, controls without ACE inhibitor (stated for both controls, with and without Hctz)): > 110 mg/dL
mean HDL-C [1, 4]: < 42 mg/dL
mean triglyceride [1, 4]: > 159 mg/dL
random serum glucose with age ([1]; FIG. 5C, absence of ACE inhibitor): caused an age-related increase
mean glucose +/-SEM ([1]; presence of Hctz, n=15, no ACE inhibitor, no anti-lipemic): 105.8 ± 5.4 mg/dL
insulin-resistant state ([1]; with vs without Hctz, no ACE inhibitor): did not improve

C[C@H](CS)C(=O)N1CCC[C@H]1C(=O)O [captopril]
triglyceride, dose effect ([1]; FIG. 6B): significant (P <0.02) dose-dependent decrease
mean HDL-C [1, 5]: parallel increases
mean glucose [1, 5]: parallel decreases
mean triglyceride [1, 5]: parallel decreases
dose-dependent effects [1]: dose-dependent effects
HDL-C ([1]; one individual followed over 44 months (FIG. 3), captopril introduced at 24 months, atenolol and hydrochlorothiazide discontinued, no anti-lipemic agent): increased
glucose [1, 6]: decreased
mean arterial blood pressure [1, 6]: decreased
serum triglyceride [1, 6]: decreased
HDL-C levels [2]: 30 mg/dL

C[C@H](N[C@@H](CCc1ccccc1)C(=O)O)C(=O)N1CCC[C@H]1C(=O)O [enalaprilat]
potency at preventing insulin resistance ([1]; compared with captopril, at presumptive therapeutically equivalent antihypertensive dosages): less potent

CCOC(=O)[C@H](CCc1ccccc1)N[C@@H](C)C(=O)N1CCC[C@H]1C(=O)O [enalapril]
mean HDL-C [1, 5]: parallel increases
mean glucose [1, 5]: parallel decreases
mean triglyceride [1, 5]: parallel decreases

NCCCC[C@H](N[C@@H](CCc1ccccc1)C(=O)O)C(=O)N1CCC[C@H]1C(=O)O [lisinopril]
dose effects with glucose, triglyceride and HDL-C ([1]; 20 and 40 mg/day): occurred
HDL-C, dose effect ([1]; FIG. 6A): significant (P<0.05) dose-dependent increase
mean HDL-C [1, 5]: parallel increases
mean glucose [1, 5]: parallel decreases
mean triglyceride [1, 5]: parallel decreases
dose-dependent effects [1]: dose-dependent effects
HDL-C levels [3]: have risen
